Laboratory results taken from publication PMC10082216 (Nature Communications, 2023).
Where two headings read alike, the source gives them in different places.

What was measured:
[1] = tested on: F32-TEM P. falciparum strain; test: Resistance selection by TD-6450 drug pulses, dose-response on F32-TEM; assay type: cell-based, Plasmodium falciparum; details: for Parental strain 1 (viability) / Parental strain 2 (viability) / Parental strain 3 (viability): No drug pulses; for IC50: Plasmodium falciparum
Experimental: To assess the ability of P. falciparum to develop resistance against TD-6450, we exposed F32-TEM line parasites, a reference artemisinin-sensitive P. falciparum strain[45], to the drug at 3 µM concentration for three days. We confirmed the absence of parasites on Giemsa-stained smears following exposure, then checked daily for parasite re-appearance in a drug-free culture flask.

[2] = tested on: healthy subjects; test: TD-6450 phase I clinical study (SAD/MAD): safety and tolerability; assay type: in vivo, human
Description: This was a phase I, double-blinded, randomized, placebo-controlled, Single Ascending Dose (SAD) and Multiple Ascending Dose (MAD) study to evaluate the safety and tolerability of TD-6450 in healthy subjects (primary objective) and the pharmacokinetics (secondary objective). The study is available in the website clinicaltrial.gov (identifier NCT02022306), it started on February the 4th 2014 (first subject enrolled) and was concluded on August the 18th 2014 (last subject concluded), in the Healthcare Discoveries (a subsidiary of ICON Development Solutions) in San Antonio, Texas, USA. Healthy, non-smoking subjects with no history of significant medical conditions, with a BMI included between 18 and 30 kg/m^2, who weight at least 50 kg, between 18 and 60 years old, were selected for this study. Subjects were able and willing to give an informed consent. No bias was reported in the selection process. The protocol and all amendments for this study and all accompanying material that was provided to subjects (including advertisements, subject’s information sheets, and descriptions of the study used to obtain informed consent) were submitted by the investigator to the centralized Institutional Review Board (IRB), namely the IntegReview, established in 1999 at Austin (Texas, U.S.A.) and acquired by Advarra in 2020. Documented approval was obtained before the study was started, on March the 28th 2014. This study was conducted in accordance with the protocol, the principles of the International Conference on Harmonization of Technical Requirements for Registration of Pharmaceuticals for Human Use (ICH) Guideline for Good Clinical Practice (GCP), the United States Code of Federal Regulations, the principles of the World Medical Association Declaration of Helsinki, Ethical Principles for Medical Research Involving Human Subjects, and all applicable regulatory requirement.
Primary and secondary outcomes were pre-defined as follows: Safety and tolerability as a primary outcome, pharmacokinetics as a secondary outcome. Safety and tolerability were evaluated using standard measures, including adverse event (AE) monitoring, clinical laboratory tests (hematology, serum chemistry, coagulation, and urinalysis), vital signs, physical examinations, and 12-lead electrocardiograms (ECGs). […] Pharmacokinetics were evaluated by the collection of blood samples from each subject at following time points: predose (within 30 min before dosing, only in day 1 60 min before dosing), and 0.5,1,2,3,4,6,8 and 12 hours after dosing.
This study was conducted in two parts, Part A (SAD) and Part B (MAD). For the Part A, the age of enrolled subjects ranged from 20 to 60 years, with a mean age range of 32.1 to 46.2 years. Most subjects were male (73 total subjects) and most were white (55 subjects) or black (22 subjects). For Part B of the study, ages ranged from 23 to 60 years with a similar mean age across treatment groups. Most subjects were male (25 total subjects) and all were either white (18 subjects) or black (12 subjects). For each part of the study, the mean body mass index (BMI) and creatinine clearance were similar across treatment groups. […] Part A: Healthy subjects were sequentially enrolled and randomly assigned to each dose cohort (up to 10 dose-ascending cohorts were planned, including a fed arm in the food effect cohort) to receive either a single dose of TD-6450 or placebo. For each dose cohort, 8 subjects were randomized in a 3:1 ratio (6 subjects received TD-6450 and 2 subjects received placebo). The starting dose of TD-6450 was 0.5 mg with a planned maximum dose of 1000 mg. Upon review of the 500-mg cohort PK data, the decision was made to not escalate to the 1000-mg cohort because of exposure saturation at ≥ 500 mg. The following doses were administered: 0.5 mg, 1.5 mg, 5 mg, 15 mg, 30 mg, 60 mg, 120 mg, 240 mg, and 500 mg. […]

[3] = tested on: stage V gametocytes of P. falciparum (3D7 pULG8-GFP strain); test: Post-screening validation with 96-well plate microsphiltration (Paris); assay type: cell-based, Plasmodium falciparum; details: eight-hour exposure

CNC(=O)N1C[C@@H](C)N(c2ccc(C(=O)Nc3ccc(-c4ccc(-c5c[nH]c([C@@H]6CCCN6C(=O)[C@@H](NC(=O)OC)C(C)C)n5)cc4)c(OC(F)(F)F)c3)cn2)C[C@@H]1C [TD-6450]
Parental strain 1 (viability) ([1]; 5 µM): 1.88
Parental strain 2 (viability) ([1]; 5 µM): 1.225
Parental strain 3 (viability) ([1]; 5 µM): 1.766
Parental strain 1 (viability) ([1]; 10 µM): 1.472
Parental strain 2 (viability) ([1]; 10 µM): 0.6944
Parental strain 3 (viability) ([1]; 10 µM): 1.083
Parental strain 1 (viability) ([1]; 20 µM): 1.826
Parental strain 2 (viability) ([1]; 20 µM): 0.509
Parental strain 3 (viability) ([1]; 20 µM): 0.9281
IC50 ([1]; F32, read-out: IC50, F32-TEM 5 pulses): 700 nM
IC50 ([1]; F32, read-out: IC50, F32-TEM 10 pulses): 300 nM
IC50 ([1]; F32, read-out: IC50, F32-TEM P.S.): 200 nM
fold shift in IC50 ([1]; after five drug-killing pulses (3 µM, three days)): 3.5 fold
fold shift in IC50 ([1]; after ten drug-killing pulses (3 µM, three days)): 1.5 fold
At least one AE N (%) ([2]; MAD 60 mg once daily 14 days): 4 (50.0) N (%)
At least one SAE N (%) ([2]; MAD 60 mg once daily 14 days): 0 (0.0) N (%)
Death N (%) ([2]; MAD 60 mg once daily 14 days): 0 (0.0) N (%)
Discontinuation due to an AE N (%) ([2]; MAD 60 mg once daily 14 days): 0 (0.0) N (%)
At least one AE N (%) ([2]; MAD 120 mg once daily 14 days): 3 (37.5) N (%)
At least one SAE N (%) ([2]; MAD 120 mg once daily 14 days): 0 (0.0) N (%)
Death N (%) ([2]; MAD 120 mg once daily 14 days): 0 (0.0) N (%)
Discontinuation due to an AE N (%) ([2]; MAD 120 mg once daily 14 days): 0 (0.0) N (%)
At least one AE N (%) ([2]; MAD 240 mg once daily 14 days): 3 (37.5) N (%)
At least one SAE N (%) ([2]; MAD 240 mg once daily 14 days): 0 (0.0) N (%)
Death N (%) ([2]; MAD 240 mg once daily 14 days): 0 (0.0) N (%)
Discontinuation due to an AE N (%) ([2]; MAD 240 mg once daily 14 days): 0 (0.0) N (%)
At least one AE N (%) ([2]; SAD 0.5 mg): 3 (50.0) N (%)
At least one SAE N (%) ([2]; SAD 0.5 mg): 0 (0.0) N (%)
Death N (%) ([2]; SAD 0.5 mg): 0 (0.0) N (%)
Discontinuation due to an AE N (%) ([2]; SAD 0.5 mg): 0 (0.0) N (%)
At least one AE N (%) ([2]; SAD 1.5 mg): 3 (50.0) N (%)
At least one SAE N (%) ([2]; SAD 1.5 mg): 0 (0.0) N (%)
Death N (%) ([2]; SAD 1.5 mg): 0 (0.0) N (%)
Discontinuation due to an AE N (%) ([2]; SAD 1.5 mg): 0 (0.0) N (%)
At least one AE N (%) ([2]; SAD 5 mg): 0 (0.0) N (%)
At least one SAE N (%) ([2]; SAD 5 mg): 0 (0.0) N (%)
Death N (%) ([2]; SAD 5 mg): 0 (0.0) N (%)
Discontinuation due to an AE N (%) ([2]; SAD 5 mg): 0 (0.0) N (%)
At least one AE N (%) ([2]; SAD 15 mg): 1 (16.7) N (%)
At least one SAE N (%) ([2]; SAD 15 mg): 0 (0.0) N (%)
Death N (%) ([2]; SAD 15 mg): 0 (0.0) N (%)
Discontinuation due to an AE N (%) ([2]; SAD 15 mg): 0 (0.0) N (%)
At least one AE N (%) ([2]; SAD 30 mg): 1 (16.7) N (%)
At least one SAE N (%) ([2]; SAD 30 mg): 0 (0.0) N (%)
Death N (%) ([2]; SAD 30 mg): 0 (0.0) N (%)
Discontinuation due to an AE N (%) ([2]; SAD 30 mg): 0 (0.0) N (%)
At least one AE N (%) ([2]; SAD 60 mg): 0 (0.0) N (%)
At least one SAE N (%) ([2]; SAD 60 mg): 0 (0.0) N (%)
Death N (%) ([2]; SAD 60 mg): 0 (0.0) N (%)
Discontinuation due to an AE N (%) ([2]; SAD 60 mg): 0 (0.0) N (%)
At least one AE N (%) ([2]; SAD 120 mg): 1 (16.7) N (%)
At least one SAE N (%) ([2]; SAD 120 mg): 0 (0.0) N (%)
Death N (%) ([2]; SAD 120 mg): 0 (0.0) N (%)
Discontinuation due to an AE N (%) ([2]; SAD 120 mg): 0 (0.0) N (%)
At least one AE N (%) ([2]; SAD 240 mg): 0 (0.0) N (%)
At least one SAE N (%) ([2]; SAD 240 mg): 0 (0.0) N (%)
Death N (%) ([2]; SAD 240 mg): 0 (0.0) N (%)
Discontinuation due to an AE N (%) ([2]; SAD 240 mg): 0 (0.0) N (%)
At least one AE N (%) ([2]; SAD 500 mg): 2 (33.3) N (%)
At least one SAE N (%) ([2]; SAD 500 mg): 0 (0.0) N (%)
Death N (%) ([2]; SAD 500 mg): 0 (0.0) N (%)
Discontinuation due to an AE N (%) ([2]; SAD 500 mg): 0 (0.0) N (%)
severe adverse events in Phase 1 study ([2]; single or multiple doses): no severe adverse events
concentration that significantly stiffens mature gametocytes [3]: 200 nM
